“And” between values parts separate entries of the source, which are not always exact repeats. Equal values may be shown once. Toxic doses and inconclusive results are not listed. Rule for the calls: active = survival T/C of 150% or more; inactive = T/C below 125% in these data.
System: P388 leukemia ip, CD2F1 mice, survival T/C
Experiment: NCI In Vivo Anticancer Drug Screen. Data for tumor model P388 Leukemia (intraperitoneal) in CD2F1 (CDF1) mice
Conditions: endpoint: median survival time, higher = longer survival
Procedure, shortened: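 Mice carrying the transplanted tumor received test compound or vehicle. Survival was recorded in each group, and the value is the treated-group measurement divided by that of the vehicle-treated control group.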

[1] = dose: 50.0 mg/kg/injection, schedule: Q01DX009 (ip), vehicle: saline with Tween-80
[2] = dose: 100.0 mg/kg/injection, schedule: Q01DX009 (ip), vehicle: saline with Tween-80
[3] = dose: 200.0 mg/kg/injection, schedule: Q01DX009 (ip), vehicle: saline with Tween-80
[4] = dose: 50.0 mg/kg/injection, schedule: Q01DX005 (ip), vehicle: saline
[5] = dose: 100.0 mg/kg/injection, schedule: Q01DX005 (ip), vehicle: saline
[6] = dose: 200.0 mg/kg/injection, schedule: Q01DX005 (ip), vehicle: saline
[7] = dose: 50.0 mg/kg/injection, schedule: Q01DX005 (ip), vehicle: saline with Tween-80
[8] = dose: 100.0 mg/kg/injection, schedule: Q01DX005 (ip), vehicle: saline with Tween-80
[9] = dose: 50.0 mg/kg/injection, schedule: Q01DX009 (ip), vehicle: Klucel (hydroxypropylcellulose) (HPC)
[10] = dose: 100.0 mg/kg/injection, schedule: Q01DX009 (ip), vehicle: Klucel (hydroxypropylcellulose) (HPC)
[11] = dose: 200.0 mg/kg/injection, schedule: Q01DX009 (ip), vehicle: Klucel (hydroxypropylcellulose) (HPC)
[12] = dose: 6.25 mg/kg/injection, schedule: Q01DX009 (ip), vehicle: water
[13] = dose: 12.5 mg/kg/injection, schedule: Q01DX009 (ip), vehicle: water
[14] = dose: 25.0 mg/kg/injection, schedule: Q01DX009 (ip), vehicle: water

Measured: T/C

CC(C)=CCC/C(C)=C/CC/C(C)=C/CS(=O)(=O)c1ccc(C)cc1
inactive: [1] 105 % of control | [2] 105 % of control | [3] 109 % of control

CC(C(=O)N1CCCC1)C(O)c1ccccc1 (stereo not given)
inactive: [4] 105 % of control | [5] 107 % of control | [6] 98 % of control

CC(=O)OC1SC(C)(C)n2c1nc1ccccc1c2=O (stereo not given)
inactive: dose: 100.0 mg/kg/injection, schedule: Q01DX001 (ip), vehicle: saline with Tween-80 100 % of control | dose: 200.0 mg/kg/injection, schedule: Q01DX001 (ip), vehicle: saline with Tween-80 104 % of control | dose: 400.0 mg/kg/injection, schedule: Q01DX001 (ip), vehicle: saline with Tween-80 98 % of control

N#CC1=CNc2ccccc2N=C1N
inactive: [7] 104 % of control | [8] 99 % of control

NC(=O)NC1(C(=O)O)CCCC1
inactive: dose: 25.0 mg/kg/injection, schedule: Q01DX009 (ip), vehicle: Klucel (hydroxypropylcellulose) (HPC) 102 % of control | [9] 103 % of control | [10] 103 % of control | [11] 105 % of control

COc1cccc2c1C(=O)c1c(O)c3c(c(O)c1C2=O)CC(O)(C(C)O)CC3 (stereo not given)
inactive: dose: 1.0 mg/kg/injection, schedule: Q01DX009 (ip), vehicle: Klucel (hydroxypropylcellulose) (HPC) 102 % of control | dose: 2.0 mg/kg/injection, schedule: Q01DX009 (ip), vehicle: Klucel (hydroxypropylcellulose) (HPC) 99 % of control | dose: 4.0 mg/kg/injection, schedule: Q01DX009 (ip), vehicle: Klucel (hydroxypropylcellulose) (HPC) 95 % of control | dose: 8.0 mg/kg/injection, schedule: Q01DX009 (ip), vehicle: Klucel (hydroxypropylcellulose) (HPC) 92 % of control

Cc1cc(C)n(C(=O)n2nc(C)cc2C)n1
inactive: [4] 100 % of control | [5] 107 % of control | [6] 100 % of control

O=C(O)CCNCCC(=O)O
inactive: dose: 50.0 mg/kg/injection, schedule: Q04DX003 (ip), vehicle: saline 96 % of control | dose: 100.0 mg/kg/injection, schedule: Q04DX003 (ip), vehicle: saline 123 % of control and 97 % of control | dose: 200.0 mg/kg/injection, schedule: Q04DX003 (ip), vehicle: saline 100 % of control | dose: 400.0 mg/kg/injection, schedule: Q04DX003 (ip), vehicle: saline 95 % of control

C[CH2][Sn]([CH2]C)([S]CCS(=O)(=O)O)[S]CCS(=O)(=O)O
inactive: dose: 0.93 mg/kg/injection, schedule: Q01DX005 (ip), vehicle: saline 95 % of control | dose: 1.87 mg/kg/injection, schedule: Q01DX005 (ip), vehicle: saline 95 % of control

N#CN=[N+]([O-])c1cccc(Br)c1
inactive: dose: 6.25 mg/kg/injection, schedule: Q04DX003 (ip), vehicle: Klucel (hydroxypropylcellulose) (HPC) 102 % of control | dose: 12.5 mg/kg/injection, schedule: Q04DX003 (ip), vehicle: Klucel (hydroxypropylcellulose) (HPC) 101 % of control | dose: 25.0 mg/kg/injection, schedule: Q04DX003 (ip), vehicle: Klucel (hydroxypropylcellulose) (HPC) 105 % of control | dose: 50.0 mg/kg/injection, schedule: Q04DX003 (ip), vehicle: Klucel (hydroxypropylcellulose) (HPC) 100 % of control

COc1nc2c(c(=O)n1C)C(=O)CN2C1OC(COC(C)=O)C(OC(C)=O)C(OC(C)=O)C1OC(C)=O (stereo not given)
inactive: [7] 103 % of control | [8] 108 % of control | dose: 200.0 mg/kg/injection, schedule: Q01DX005 (ip), vehicle: saline with Tween-80 103 % of control

O=NNc1ccc(S(=O)(=O)c2ccc3ccccc3c2)cn1
inactive: dose: 3.12 mg/kg/injection, schedule: Q01DX009 (ip), vehicle: water 120 % of control | [12] 115 % of control | [13] 116 % of control | [14] 109 % of control

COC(=O)C(Cc1cnc2nc(N)nc(N)c2n1)C(=O)OC
inactive: dose: 25.0 mg/kg/injection, schedule: Q01DX009 (ip), vehicle: distilled water + Tween-80 104 % of control | dose: 50.0 mg/kg/injection, schedule: Q01DX009 (ip), vehicle: distilled water + Tween-80 104 % of control | dose: 100.0 mg/kg/injection, schedule: Q01DX009 (ip), vehicle: distilled water + Tween-80 122 % of control

COc1cccc(OC)c1N
inactive: [1] 108 % of control | [2] 108 % of control | [3] 92 % of control | dose: 400.0 mg/kg/injection, schedule: Q01DX009 (ip), vehicle: saline with Tween-80 90 % of control

O=CNc1nc[nH]c1-c1noc(=O)[nH]1
inactive: dose: 25.0 mg/kg/injection, schedule: Q04DX002 (ip), vehicle: saline 104 % of control | dose: 50.0 mg/kg/injection, schedule: Q04DX002 (ip), vehicle: saline 104 % of control | dose: 100.0 mg/kg/injection, schedule: Q04DX002 (ip), vehicle: saline 104 % of control and 110 % of control

CC(C)(C)OC(=O)N1CCc2c([nH]oc2=O)C1
inactive: dose: 50.0 mg/kg/injection, schedule: Q01DX009 (ip), vehicle: suspension in saline 92 % of control | dose: 100.0 mg/kg/injection, schedule: Q01DX009 (ip), vehicle: suspension in saline 90 % of control | dose: 200.0 mg/kg/injection, schedule: Q01DX009 (ip), vehicle: suspension in saline 90 % of control

Cc1c[n+]([O-])ccc1Br
inactive: [12] 99 % of control | [13] 90 % of control | [14] 100 % of control | dose: 50.0 mg/kg/injection, schedule: Q01DX009 (ip), vehicle: water 101 % of control

CC1CC2C(=S)NC(=O)C(c3ccccc3)=C2O1 (stereo not given)
inactive: [9] 107 % of control | [10] 103 % of control | [11] 100 % of control

CCO/C=C1\SC(=S)N(c2cccc(OC)c2)C1=O
inactive: [2] 118 % of control | dose: 117.0 mg/kg/injection, schedule: Q04DX003 (ip), vehicle: saline with Tween-80 113 % of control | dose: 178.0 mg/kg/injection, schedule: Q04DX003 (ip), vehicle: saline with Tween-80 118 % of control | [3] 118 % of control | dose: 266.0 mg/kg/injection, schedule: Q04DX003 (ip), vehicle: saline with Tween-80 109 % of control

CN=NNc1ccc(C#N)cc1
inactive: dose: 100.0 mg/kg/injection, schedule: Q01DX001 (ip), vehicle: Klucel (hydroxypropylcellulose) (HPC) 98 % of control | dose: 200.0 mg/kg/injection, schedule: Q01DX001 (ip), vehicle: Klucel (hydroxypropylcellulose) (HPC) 98 % of control | dose: 400.0 mg/kg/injection, schedule: Q01DX001 (ip), vehicle: Klucel (hydroxypropylcellulose) (HPC) 95 % of control

N/N=C(/c1ccc(Cl)cc1)N1CCOCC1
inactive: dose: 100.0 mg/kg/injection, schedule: Q04DX003 (ip), vehicle: saline with Tween-80 103 % of control | dose: 200.0 mg/kg/injection, schedule: Q04DX003 (ip), vehicle: saline with Tween-80 103 % of control | dose: 400.0 mg/kg/injection, schedule: Q04DX003 (ip), vehicle: saline with Tween-80 98 % of control

O=C(O)c1ccnc2c1ccc1ccccc12
inactive: dose: 100.0 mg/kg/injection, schedule: Q04DX002 (ip), vehicle: Klucel (hydroxypropylcellulose) (HPC) 103 % of control | dose: 200.0 mg/kg/injection, schedule: Q04DX002 (ip), vehicle: Klucel (hydroxypropylcellulose) (HPC) 94 % of control

Cc1ccc(N2CC=C(c3ccccc3)OP2(=O)N2CC2)cc1 (stereo not given)
inactive: dose: 50.0 mg/kg/injection, schedule: Q01DX005 (ip), vehicle: Klucel (hydroxypropylcellulose) (HPC) 101 % of control | dose: 100.0 mg/kg/injection, schedule: Q01DX005 (ip), vehicle: Klucel (hydroxypropylcellulose) (HPC) 101 % of control | dose: 200.0 mg/kg/injection, schedule: Q01DX005 (ip), vehicle: Klucel (hydroxypropylcellulose) (HPC) 94 % of control
